Results taken from patent publication US12122821B2, “Regulation of glucose metabolism using anti-CGRP antibodies” (H. LUNDBECK A/S, priority 2013, dated 2024).
“Also recorded” adds a separate entry of the source.

What was measured:
[1] = tested on: HFD rats; assay: 2-step hyperinsulinemic-euglycemic clamp in HFD rats (Example 2); assay type: in vivo, rat; settings: metformin 200 mg/kg/day, vs HFD vehicle
Procedure: Six-week HFD fed rats were treated for 2 weeks with Ab14, and a 2-step hyperinsulinemic euglycemic clamp was performed to assess insulin sensitivity. A physiological dose of insulin was used during the first step and a pharmacological dose of insulin was used during the second step to assess the effects of […] insulin sensitivity, respectively, under these two conditions.
Body weight and food consumption were measured 3 times per week until 10 days of treatment. HOMA-IR was measured on day 10 and 15. A 2-step clamp (5 mU/kg/min and then 15 mU/kg/min insulin) was performed on day 15 or 16. Glucose Turnover (GTO) was assessed using ^3H-glucose tracer infusion during the clamp procedure.
On day 15 or 16, the 2-step hyperinsulinemic-euglycemic clamp was performed using ^3H-glucose as a tracer (except in the normal chow group), and 5 mU/kg/min insulin infusion from 02:00 pm (T0) to 04:00 pm (T+2 h), followed by 15 mU/kg/min insulin infusion from 04:00 pm to 05:30 pm (t+3.5 h). A glucose solution was infused in parallel and the infusion rate was adjusted to reach the steady state (100±10 mg/dL). Blood glucose was measured from the tip of the tail using glucometers every 10 minutes. Blood was collected (10 μL) regularly from the tip of the tail during the steady states of each step.
The following parameters were assessed: Glucose infusion rate (in all groups); Whole body glucose utilization rate (except in the normal chow group); Hepatic glucose production rate (except in the normal chow group); Whole body glycogen and glycolytic rates (except in the normal chow group).

[2] = tested on: Normal rats; assay: Individual tissue glucose utilization rate (14C-2-DOG) during clamp in normal rats (Example 1); assay type: in vivo, rat; settings: Ab14 100 mg/kg i.v., metformin 500 mg/kg p.o., vs vehicle
Procedure: To determine the individual tissue glucose utilization rate, a bolus injection of 100 μCi per rat of deoxy-D-glucose 2-^14C (^14C-2-DOG) through the femoral vein was performed 60 min before the end of the D-[3-^3H]-glucose infusion. Plasma ^14C-2-DOG disappearance and glucose concentration were determined in 10 μL drops of blood sampled from the tip of the tail vein at 0, 5, 10, 15, 20, 25, 30, 45, and 60 minutes after the injection. At the end of the experiment, vastus lateralis (VL), extensor digitorum longus (EDL) and soleus muscles, epididymal and inguinal white adipose tissues, heart apex, and skin (as negative control) were dissected, flash frozen and kept at −80° C. A piece of each tissue was dissolved in 1M NaOH and then neutralized with 1M HCl. […]. D-2-^14C deoxyglucose was differentially precipitated by the use of a zinc hydroxide (0.3M) solution or a perchloric acid solution (6%). Both radioactivity contents were measured to evaluate the glucose uptake expressed as ng/mg/min.

[3] = tested on: Zucker diabetic fatty (ZDF) rat; assay: Fructosamine and HbA1c in ZDF rats (Example 3); assay type: in vivo; settings: metformin 200 mg/kg/day, vs vehicle ZDF
Procedure: (§1) For the groups treated with AB14, the antibody was administered once weekly via the caudal vein (i.v., 5 mL/kg) on days 1, 8, 15, and 22 at two different doses 20 mg/kg/week (groups 3 and 7) or 60 mg/kg/week (groups 4 and 8). All other groups were treated once weekly with vehicle 1 (i.v., 5 mL/kg). The intravenous treatments were performed in the morning on day 1, 8, 15, and 22 while under isoflurane anaesthesia. The volume of administration was individually adapted according to the most recent body weight.
(§2) All other groups were treated daily with vehicle 2 (p.o., 5 mL/kg) for 28 days. The most recent body weight was used to calculate the average volume of administration in each group.
(§3) Fasting blood glucose (glucometers) was measured on days 0, 12, 19, and 26. Fasting plasma insulin, peptide-C (ELISA method), free fatty acids, triglycerides, total cholesterol (colorimetric method), and HDL-cholesterol (phosphotungstate precipitation, colorimetric method) were measured on day 0, and prior to dosing on days 12, 19, and day 26. Non HDL-cholesterol was calculated as total cholesterol—HDL-cholesterol. Fructosamine was measured on days 0, 19 and 28. HbA1c (DCA 2000) was measured on days 0 and 28.

[4] = tested on: Zucker diabetic fatty (ZDF) rat; assay: Plasma triglycerides, free fatty acids and cholesterol in ZDF rats (Example 3); assay type: in vivo; settings: for increase of free fatty acids levels: vs vehicle ZDF, not significant
Procedure: as §1, §2
A fasting (6 hours on day 0 from 8:00 am to 02:00 pm, and overnight on day 12, 19 and 26 from ˜6:00 pm to ˜8:00 am) was performed before each blood collection. Blood was collected at ˜2:00 pm, from the tip of the tail, on day 0 (before screening, 150 μL, potassium EDTA), and at ˜8:00 am prior to dosing on days 12 (110 μL, potassium EDTA), 19 (150 μL, potassium EDTA) and 26, (110 μL, potassium EDTA).
as §3

[5] = tested on: Normal rats; assay: Hyperinsulinemic-euglycemic clamp, whole body glucose fluxes in normal rats (Example 1); assay type: in vivo, rat; settings: vs vehicle
Procedure: To assess the effect on whole body insulin sensitivity, a clamp procedure was performed using 0.3 U/kg/h insulin and ^3H-glucose. Rats were fasted for 6 hours before 180 minutes of perfusion. Steady state was reached after 140 minutes of infusion and the means of glucose infusion rate (GIR), whole body glucose turn over (GTO), hepatic glucose production (HGP), glycolysis, and glycogen synthesis were calculated from 140 min. to 180 min. A bolus of 14-C-2-deoxyglucose was administered 1 hour before the end of the clamp to measure tissue specific glucose utilization.
The hyperinsulinemic-euglycemic clamp was performed using ^3H-glucose as a tracer and 0.3 U/kg/h insulin infusion from 02:00 pm (T0) to 05:00 pm (T+3 h). A glucose solution was infused in parallel and the infusion rate was adjusted to reach the steady state (˜100+/−10 mg/dL). Blood glucose was measured from the tip of the tail using glucometers every 10 minutes. Blood was collected (10 μL) from the tip of the tail during the last hour (steady state) and the following parameters were assessed: Glucose infusion rate; Whole body glucose utilization rate; Hepatic glucose production rate; Whole body glycogen and glycolytic rates.
Whole body Glucose fluxes.

[6] = clamp 0.3 U/kg/h insulin, 140-180 min, Ab14 100 mg/kg i.v., metformin 500 mg/kg p.o.

Structure (SMILES): CN(C)C(=N)N=C(N)N [metformin, reference compound]
- GIR (plateau) during the first clamp step ([1]; 5 mU/kg/min insulin, Ab14 treated groups (10, 30, 100 mg/kg)): increasing effect upon GIR that was comparatively less in magnitude; also recorded: no effect
- increase of mean GIR, first step ([1]; 5 mU/kg/min insulin, ns): 11%
- HGP, second step ([1]; 15 mU/kg/min insulin): completely inhibited
- increase of mean GIR, second step ([1]; 15 mU/kg/min insulin): 27%
- change of glucose utilization in the heart [2]: −39%
- glucose utilization rate in white adipose tissues (deep and subcutaneous) [2]: did not affect
- increase of glucose utilization in mixed vastus lateralis muscle (VL) [2]: 49%
- increase of glucose utilization in glycolytic extensor digitorum longus muscle (EDL) ([2]; NS): 19%
- decrease of HbA1c ([3]; 28 days, pioglitazone 10 mg/kg/day): 15%
- reduction of fructosamine levels ([3]; day 19, pioglitazone 10 mg/kg/day): 6%
- increase of plasma triglycerides levels ([4]; day 12, metformin 200 mg/kg/day, vs vehicle): 26%
- increase of free fatty acids levels ([4]; day 12, metformin 200 mg/kg/day): 14%
- increase of plasma triglycerides levels ([4]; day 19, metformin 200 mg/kg/day, vs vehicle): 40%
- increase of free fatty acids levels ([4]; day 19, metformin 200 mg/kg/day): 25%
- increase of plasma triglycerides levels ([4]; day 26, metformin 200 mg/kg/day, vs vehicle): 49%
- increase of free fatty acids levels ([4]; day 26, metformin 200 mg/kg/day): 8%
- non HDL-cholesterol levels ([4]; metformin 200 mg/kg/day alone or in combination with AB14, vs vehicle): no effect
- plasma HDL-cholesterol ([4]; metformin 200 mg/kg/day alone, vs vehicle): no effect
- GIR evolution during clamp ([5]; Ab14 100 mg/kg i.v., metformin 500 mg/kg p.o.): significantly increased
- increase of glucose infusion rate (GIR) ([5]; clamp 0.3 U/kg/h insulin, 140-180 min, Ab14 100 mg/kg i.v. 48 h before, metformin 500 mg/kg p.o. 24 h and 4 h before): 27%
- increase of glycolysis rate [5, 6]: 43%
- increase of whole body glucose turn over (GTO) [5, 6]: 30%
